Values after ≈ are worked out from the molar mass of the structure shown.
Legend:
[1] = tested on: Mycobacterium tuberculosis; assay: microbe, parasite or virus in culture; conditions: H37Rv
[2] = in vitro; conditions: human, liver microsomes
Description: Metabolic stability in human liver microsomes assessed as compound remaining after 1 hr

[3] = in vitro; conditions: CD1, mouse, liver microsomes
Description: Metabolic stability in CD1 mouse liver microsomes assessed as compound remaining after 1 hr

[4] = physchem; conditions: water, pH 7
Description: Solubility of the compound in water at pH 7.0 by HPLC

[5] = tested on: Mycobacterium tuberculosis; assay: microbe, parasite or virus in culture; conditions: H37Rv; remark: listed apart in the source
Description: Antitubercular activity against Mycobacterium tuberculosis H37Rv by LORA method

[6] = physchem; conditions: water, pH 1
Description: Solubility of the compound in water at pH 1.0 by HPLC

Structure (SMILES)	MIC [1] [µM]	remaining at 1 h [2] [%]	remaining at 1 h [3] [%]	solubility [4] [mg/mL]	MIC [5] [µM]	solubility [6] [mg/mL]
O=[N+]([O-])c1cn2c(n1)OC[C@@H](OCc1ccnc(-c3ccc(OC(F)(F)F)cc3)c1)C2	0.035 (≈ 0.0153 µg/mL)	54	31	0.0039 (≈ 8.94 µM)	2.4 (≈ 1.05 µg/mL)	
O=[N+]([O-])c1cn2c(n1)OC[C@@H](OCc1ccc(-c3ccc(C(F)(F)F)cn3)cn1)C2	0.83 (≈ 0.35 µg/mL)			0.0059 (≈ 14 µM)	9.6 (≈ 4.04 µg/mL)	0.442 (≈ 1050 µM)
O=[N+]([O-])c1cn2c(n1)OC[C@@H](OCc1ccc(-c3ccc(C(F)(F)F)cc3)nc1)C2	0.053 (≈ 0.0223 µg/mL)			0.0012 (≈ 2.85 µM)	0.53 (≈ 0.223 µg/mL)	
O=[N+]([O-])c1cn2c(n1)OC[C@@H](OCc1ccc(-c3ccc(OC(F)(F)F)c(Cl)c3)cn1)C2	0.04 (≈ 0.0188 µg/mL)			0.00085 (≈ 1.81 µM)	2.4 (≈ 1.13 µg/mL)	
O=[N+]([O-])c1cn2c(n1)OC[C@@H](OCc1cccc(-c3ccc(C(F)(F)F)cn3)c1)C2	0.32 (≈ 0.135 µg/mL)			0.004 (≈ 9.52 µM)	4.3 (≈ 1.81 µg/mL)	
O=[N+]([O-])c1cn2c(n1)OC[C@@H](OCc1cccc(-c3ccc(C(F)(F)F)cc3)n1)C2	0.29 (≈ 0.122 µg/mL)			0.005 (≈ 11.9 µM)	2.9 (≈ 1.22 µg/mL)	
COc1ccc(-c2cncc(CO[C@@H]3COc4nc([N+](=O)[O-])cn4C3)c2)cn1	2.8 (≈ 1.07 µg/mL)			0.031 (≈ 80.9 µM)	22 (≈ 8.43 µg/mL)	
O=[N+]([O-])c1cn2c(n1)OC[C@@H](OCc1ccc(-c3ccc(C(F)(F)F)nc3)nn1)C2	0.55 (≈ 0.232 µg/mL)			0.012 (≈ 28.4 µM)	14 (≈ 5.91 µg/mL)	
O=[N+]([O-])c1cn2c(n1)OC[C@@H](OCc1ncc(-c3ccc(OC(F)F)cc3)cn1)C2	0.12 (≈ 0.0503 µg/mL)			0.0078 (≈ 18.6 µM)	7.4 (≈ 3.1 µg/mL)	
O=[N+]([O-])c1cn2c(n1)OC[C@@H](OCc1ccc(-c3cncc(F)c3)cc1)C2	0.55 (≈ 0.204 µg/mL)			0.055 (≈ 149 µM)	2.8 (≈ 1.04 µg/mL)	
O=[N+]([O-])c1cn2c(n1)OC[C@@H](OCc1ncc(-c3ccc(C(F)(F)F)nc3)cn1)C2	0.28 (≈ 0.118 µg/mL)			0.085 (≈ 201 µM)	14 (≈ 5.91 µg/mL)	
O=[N+]([O-])c1cn2c(n1)OC[C@@H](OCc1ccc(-c3ccc(C(F)(F)F)cc3)cn1)C2	0.04 (≈ 0.0168 µg/mL)			0.0023 (≈ 5.47 µM)	3.4 (≈ 1.43 µg/mL)	
O=[N+]([O-])c1cn2c(n1)OC[C@@H](OCc1cccc(-c3ccc(F)nc3)c1)C2	0.37 (≈ 0.137 µg/mL)			0.026 (≈ 70.2 µM)	5.1 (≈ 1.89 µg/mL)	
O=[N+]([O-])c1cn2c(n1)OC[C@@H](OCc1ccc(-c3ccc(C(F)(F)F)nc3)nc1)C2	0.19 (≈ 0.0801 µg/mL)			0.007 (≈ 16.6 µM)	17 (≈ 7.16 µg/mL)	
O=[N+]([O-])c1cn2c(n1)OC[C@@H](OCc1ccc(-c3ccc(F)nc3)nc1)C2	0.37 (≈ 0.137 µg/mL)			0.051 (≈ 137 µM)	13 (≈ 4.83 µg/mL)	
O=[N+]([O-])c1cn2c(n1)OC[C@@H](OCc1ccc(-c3ccc(OC(F)F)cc3)nn1)C2	0.17 (≈ 0.0713 µg/mL)			0.0013 (≈ 3.1 µM)	7.5 (≈ 3.15 µg/mL)	
COc1ccc(-c2ccc(CO[C@@H]3COc4nc([N+](=O)[O-])cn4C3)nn2)cn1	0.72 (≈ 0.277 µg/mL)			0.034 (≈ 88.5 µM)	20 (≈ 7.69 µg/mL)	
COc1ccc(-c2ccnc(CO[C@@H]3COc4nc([N+](=O)[O-])cn4C3)c2)cn1	3.8 (≈ 1.46 µg/mL)			0.096 (≈ 250 µM)	31 (≈ 11.9 µg/mL)	
O=[N+]([O-])c1cn2c(n1)OC[C@@H](OCc1ccc(-c3ccncc3)cc1)C2	0.5 (≈ 0.176 µg/mL)			0.022 (≈ 62.4 µM)	9.2 (≈ 3.24 µg/mL)	
N#Cc1ccc(-c2ccnc(CO[C@@H]3COc4nc([N+](=O)[O-])cn4C3)c2)cc1	2.1 (≈ 0.792 µg/mL)			0.019 (≈ 50.3 µM)	> 32	
O=[N+]([O-])c1cn2c(n1)OC[C@@H](OCc1cccc(-c3ccc(OC(F)F)cc3)n1)C2	0.17 (≈ 0.0711 µg/mL)			0.0096 (≈ 22.9 µM)	2.7 (≈ 1.13 µg/mL)	
O=[N+]([O-])c1cn2c(n1)OC[C@@H](OCc1ccc(-c3cccc(F)n3)cn1)C2	1.4 (≈ 0.52 µg/mL)			0.041 (≈ 110 µM)	20 (≈ 7.43 µg/mL)	
O=[N+]([O-])c1cn2c(n1)OC[C@@H](OCc1cnc(-c3ccc(OC(F)F)cc3)cn1)C2	0.2 (≈ 0.0839 µg/mL)			0.005 (≈ 11.9 µM)	1.3 (≈ 0.545 µg/mL)	
Nc1ccc(-c2ccc(CO[C@@H]3COc4nc([N+](=O)[O-])cn4C3)cc2)cn1	2.6 (≈ 0.955 µg/mL)			0.013 (≈ 35.4 µM)	19 (≈ 6.98 µg/mL)	

Structure (SMILES)	MIC [1] [µM]	remaining at 1 h [2] [%]	remaining at 1 h [3] [%]	solubility [4] [mg/mL]	MIC [5] [µM]	solubility [6] [mg/mL]
O=[N+]([O-])c1cn2c(n1)OC[C@@H](OCc1ccc(-c3cncc(F)c3)cn1)C2	2.6 (≈ 0.965 µg/mL)			0.13 (≈ 350 µM)	21 (≈ 7.8 µg/mL)	
O=[N+]([O-])c1cn2c(n1)OC[C@@H](OCc1ccnc(-c3ccc(C(F)(F)F)cc3)c1)C2	0.075 (≈ 0.0315 µg/mL)			0.0028 (≈ 6.66 µM)	4.4 (≈ 1.85 µg/mL)	
COc1ccc(-c2cccc(CO[C@@H]3COc4nc([N+](=O)[O-])cn4C3)n2)cc1F	0.3 (≈ 0.12 µg/mL)			0.01 (≈ 25 µM)	4.3 (≈ 1.72 µg/mL)	
COc1ccc(-c2cccc(CO[C@@H]3COc4nc([N+](=O)[O-])cn4C3)n2)cn1	0.71 (≈ 0.272 µg/mL)			0.014 (≈ 36.5 µM)	5.2 (≈ 1.99 µg/mL)	
O=[N+]([O-])c1cn2c(n1)OC[C@@H](OCc1cccc(-c3cccnc3)c1)C2	1.4 (≈ 0.493 µg/mL)			0.11 (≈ 312 µM)	9.7 (≈ 3.42 µg/mL)	
O=[N+]([O-])c1cn2c(n1)OC[C@@H](OCc1ccc(-c3cccnc3)cc1)C2	0.51 (≈ 0.18 µg/mL)			0.029 (≈ 82.3 µM)	5.7 (≈ 2.01 µg/mL)	
O=[N+]([O-])c1cn2c(n1)OC[C@@H](OCc1cncc(-c3ccc(OC(F)(F)F)cc3)c1)C2	0.17 (≈ 0.0742 µg/mL)			0.0095 (≈ 21.8 µM)	2.4 (≈ 1.05 µg/mL)	
O=[N+]([O-])c1cn2c(n1)OC[C@@H](OCc1ncc(-c3ccc(C(F)(F)F)cc3)cn1)C2	0.06 (≈ 0.0253 µg/mL)			0.0027 (≈ 6.41 µM)	3.5 (≈ 1.47 µg/mL)	
O=[N+]([O-])c1cn2c(n1)OC[C@@H](OCc1ccccc1-c1cccnc1)C2	> 8			0.116 (≈ 329 µM)	> 32	
O=[N+]([O-])c1cn2c(n1)OC[C@@H](OCc1cncc(-c3ccc(OC(F)F)cc3)c1)C2	0.53 (≈ 0.222 µg/mL)			0.0092 (≈ 22 µM)	5.9 (≈ 2.47 µg/mL)	
O=[N+]([O-])c1cn2c(n1)OC[C@@H](OCc1ccc(-c3cccc(F)n3)cc1)C2	0.14 (≈ 0.0518 µg/mL)			0.0043 (≈ 11.6 µM)	1.1 (≈ 0.407 µg/mL)	
O=[N+]([O-])c1cn2c(n1)OC[C@@H](OCc1ccc(-c3ccc(C(F)(F)F)cc3)nn1)C2	0.06 (≈ 0.0253 µg/mL)			0.0054 (≈ 12.8 µM)	2.8 (≈ 1.18 µg/mL)	
O=[N+]([O-])c1cn2c(n1)OC[C@@H](OCc1cnc(-c3ccc(C(F)(F)F)nc3)cn1)C2	0.33 (≈ 0.139 µg/mL)			0.027 (≈ 63.9 µM)	3.7 (≈ 1.56 µg/mL)	
COc1ccc(-c2cncc(CO[C@@H]3COc4nc([N+](=O)[O-])cn4C3)c2)cc1F	0.91 (≈ 0.364 µg/mL)			0.024 (≈ 59.9 µM)	9 (≈ 3.6 µg/mL)	
COc1ccc(-c2cc(CO[C@@H]3COc4nc([N+](=O)[O-])cn4C3)ccn2)cc1F	0.34 (≈ 0.136 µg/mL)			0.0072 (≈ 18 µM)	6.2 (≈ 2.48 µg/mL)	
COc1ccc(-c2ccnc(CO[C@@H]3COc4nc([N+](=O)[O-])cn4C3)c2)cc1F	2.3 (≈ 0.921 µg/mL)			0.025 (≈ 62.4 µM)	16 (≈ 6.41 µg/mL)	
O=[N+]([O-])c1cn2c(n1)OC[C@@H](OCc1ccc(-c3ccc(OC(F)(F)F)cc3F)nc1)C2	0.047 (≈ 0.0214 µg/mL)			0.0022 (≈ 4.84 µM)	1.9 (≈ 0.863 µg/mL)	
O=[N+]([O-])c1cn2c(n1)OC[C@@H](OCc1ccc(-c3ccc(OC(F)F)cc3)nc1)C2	0.02 (≈ 0.00837 µg/mL)			0.0016 (≈ 3.82 µM)	3.4 (≈ 1.42 µg/mL)	
O=[N+]([O-])c1cn2c(n1)OC[C@@H](OCc1cc(-c3ccc(OC(F)F)cc3)ccn1)C2	0.67 (≈ 0.28 µg/mL)			0.086 (≈ 206 µM)	26 (≈ 10.9 µg/mL)	
O=[N+]([O-])c1cn2c(n1)OC[C@@H](OCc1cnc(-c3ccc(F)cc3)cn1)C2	0.085 (≈ 0.0316 µg/mL)			0.0089 (≈ 24 µM)	2 (≈ 0.743 µg/mL)	
N#Cc1ccc(-c2cncc(CO[C@@H]3COc4nc([N+](=O)[O-])cn4C3)c2)cc1	0.69 (≈ 0.26 µg/mL)			0.029 (≈ 76.8 µM)	18 (≈ 6.79 µg/mL)	
COc1ccc(-c2ccc(CO[C@@H]3COc4nc([N+](=O)[O-])cn4C3)nn2)cc1F	0.25 (≈ 0.1 µg/mL)			0.0068 (≈ 16.9 µM)	6.6 (≈ 2.65 µg/mL)	
N#Cc1ccc(-c2cccc(CO[C@@H]3COc4nc([N+](=O)[O-])cn4C3)n2)cc1	0.48 (≈ 0.181 µg/mL)			0.024 (≈ 63.6 µM)	10 (≈ 3.77 µg/mL)	

Source: ChEMBL document CHEMBL1629541, “Synthesis and structure-activity relationships of aza- and diazabiphenyl analogues of the antitubercular drug (6S)-2-nitro-6-{[4-(trifluoromethoxy)benzyl]oxy}-6,7-dihydro-5H-imidazo[2,1-b][1,3]oxazine (PA-824)” (J Med Chem, 2010)
